Measurements published in patent US20250214960A1, “COMPOUNDS HAVING ACTIVITY OF DEGRADING GSPT1 AND APPLICATION THEREOF” (SHANGHAI MEIZER PHARMACEUTICALS CO., LTD., priority 2021, published 2025).
Like-named read-outs stand apart in the source and are kept apart here.

What was measured:
GSPT1 protein = molecular target: T1, GSPT1 protein (Homo sapiens, UniProt P15170+Q96SW2); assay: Western blot detection of degradation activity of GSPT1 protein in Jeko-1 cells; format: cell-based; conditions: JeKo-1, 24 h, read-out: GSPT1 degradation rate (%)
T1 construct: endogenous in cells; host or cells: Jeko-1
T1 sequence (P15170 whole entry): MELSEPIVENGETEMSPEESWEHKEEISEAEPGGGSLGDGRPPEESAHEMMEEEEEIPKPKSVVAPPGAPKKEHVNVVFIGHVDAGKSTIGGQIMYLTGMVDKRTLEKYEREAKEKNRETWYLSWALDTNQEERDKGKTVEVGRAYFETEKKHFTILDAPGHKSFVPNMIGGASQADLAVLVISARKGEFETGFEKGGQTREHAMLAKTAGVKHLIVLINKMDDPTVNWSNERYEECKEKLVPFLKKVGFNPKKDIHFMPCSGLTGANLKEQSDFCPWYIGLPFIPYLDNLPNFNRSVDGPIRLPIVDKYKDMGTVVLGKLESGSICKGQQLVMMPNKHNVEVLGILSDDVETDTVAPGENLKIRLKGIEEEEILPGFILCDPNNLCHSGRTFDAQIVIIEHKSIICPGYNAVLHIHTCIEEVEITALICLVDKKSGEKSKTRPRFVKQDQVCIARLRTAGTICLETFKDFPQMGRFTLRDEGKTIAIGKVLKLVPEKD
T1 sequence (Q96SW2 whole entry): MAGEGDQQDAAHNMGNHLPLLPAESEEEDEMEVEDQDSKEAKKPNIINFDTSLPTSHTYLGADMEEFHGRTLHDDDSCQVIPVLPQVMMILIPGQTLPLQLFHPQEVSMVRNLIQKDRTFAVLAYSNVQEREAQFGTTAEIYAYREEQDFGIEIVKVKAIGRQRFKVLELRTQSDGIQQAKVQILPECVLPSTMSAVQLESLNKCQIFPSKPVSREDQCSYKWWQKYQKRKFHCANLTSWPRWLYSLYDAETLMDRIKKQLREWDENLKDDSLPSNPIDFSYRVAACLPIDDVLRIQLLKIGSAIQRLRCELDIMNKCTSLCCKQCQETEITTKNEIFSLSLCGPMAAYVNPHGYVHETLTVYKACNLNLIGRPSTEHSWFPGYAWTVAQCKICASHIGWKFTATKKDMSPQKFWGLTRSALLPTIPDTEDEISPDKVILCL
T1 sequence (Q16531 whole entry partner): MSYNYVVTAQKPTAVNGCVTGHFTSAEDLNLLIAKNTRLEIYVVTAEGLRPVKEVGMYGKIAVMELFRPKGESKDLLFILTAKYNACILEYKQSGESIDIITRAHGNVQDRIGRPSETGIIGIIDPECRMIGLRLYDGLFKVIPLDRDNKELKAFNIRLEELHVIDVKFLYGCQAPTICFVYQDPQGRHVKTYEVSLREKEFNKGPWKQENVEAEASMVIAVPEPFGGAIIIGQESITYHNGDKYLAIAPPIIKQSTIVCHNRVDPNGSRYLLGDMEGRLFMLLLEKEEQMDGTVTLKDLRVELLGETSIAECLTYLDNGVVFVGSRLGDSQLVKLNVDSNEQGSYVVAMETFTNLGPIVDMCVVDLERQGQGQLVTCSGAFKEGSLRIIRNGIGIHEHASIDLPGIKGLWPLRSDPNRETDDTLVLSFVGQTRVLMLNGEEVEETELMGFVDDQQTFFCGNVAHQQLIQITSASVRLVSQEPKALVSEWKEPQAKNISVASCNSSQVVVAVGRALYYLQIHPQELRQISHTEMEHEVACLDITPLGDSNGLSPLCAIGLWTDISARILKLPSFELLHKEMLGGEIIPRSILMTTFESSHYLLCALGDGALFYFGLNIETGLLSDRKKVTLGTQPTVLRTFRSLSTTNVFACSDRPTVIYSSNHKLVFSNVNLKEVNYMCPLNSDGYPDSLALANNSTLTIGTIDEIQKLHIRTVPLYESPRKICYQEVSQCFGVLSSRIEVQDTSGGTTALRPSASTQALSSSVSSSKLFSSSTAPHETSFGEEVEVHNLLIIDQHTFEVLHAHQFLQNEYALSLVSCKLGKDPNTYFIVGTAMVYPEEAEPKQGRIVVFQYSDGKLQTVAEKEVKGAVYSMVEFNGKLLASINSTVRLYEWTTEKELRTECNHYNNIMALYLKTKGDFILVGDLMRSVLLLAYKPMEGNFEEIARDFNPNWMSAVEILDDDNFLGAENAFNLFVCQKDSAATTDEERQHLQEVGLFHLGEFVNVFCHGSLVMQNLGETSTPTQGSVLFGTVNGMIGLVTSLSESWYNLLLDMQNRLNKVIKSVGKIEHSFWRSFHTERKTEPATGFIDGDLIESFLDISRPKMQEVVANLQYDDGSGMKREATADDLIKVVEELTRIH
Procedure, shortened: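 Jeko-1 cells in RPMI1640 with 20% FBS treated with compound or DMSO for 24 h at 37° C. GSPT1 detected in lysates by Western blot with GAPDH as internal reference. Band intensities quantified by gray-level analysis to calculate GSPT1 degradation rate.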

HL-60 cells = assay: CTG method, inhibition of HL-60 cell proliferation; format: cell-based; conditions: Homo sapiens; HL-60, 72 hours; read-out: Cellular proliferation inhibition IC50
Method: (§1) Test Example 2: CTG Method for Detecting the Inhibitory Effect of Compounds of Formula on the Proliferation of HNT 34 or HL-60 Cells
(§2) HNT-34 or HL-60 cells were taken and cultured in RPMI1640 medium containing 20% fetal bovine serum. The cells were inoculated on a 96 well plate, with 1×10^4 cells per well, and incubated at 37° C. in a […] incubator. After adding the test compound, it was incubated for 72 hours. Then an appropriate amount of CTG reagent was added, the luminescence value was measured, and the inhibition rate was calculated.

HNT-34 cells = assay: CTG method, inhibition of HNT-34 cell proliferation; format: cell-based; conditions: HNT-34, 72 hours; read-out: Cellular proliferation inhibition IC50
Method: as §1, §2

Jeko-1 cells = assay: CCK8 method, inhibition of Jeko-1 cell proliferation; format: cell-based; conditions: Homo sapiens; Jeko-1, 72 hours; read-out: Cellular proliferation inhibition IC50
Method: Test Example 3: CCK8 Method for Detecting Inhibition of Jeko-1 Cell Proliferation by Compound of Formula
Cell culture: The Jeko-1 cell line (human lymphoma cells) was cultured in RPMI-1640 complete medium containing […] and 1% penicillin streptomycin, and incubated in an incubator at 37° C., 5% CO2, and saturated humidity.
Cell laying: Jeko-1 cells in logarithmic growth phase was taken, centrifuged, and an appropriate amount of complete culture medium was added to obtain a single-cell suspension, a hemocytometer was used for cell counting, and a cell suspension of 1.5×10^5 cells/mL was prepared, the cells were inoculated into a 96 well culture plate at a rate of 100 μL cell suspension per well and incubated in a CO2 cell incubator for 24 hours.
CCK-8 detection: 72 hours after administration, 10% CCK-8 solution was added to each well, placed in a CO2 cell culture incubator, and incubated for 1-4 hours. The absorbance of each well was measured using a microplate reader at 450 nm.
Calculation of cellular proliferation inhibition rate:
Cellular proliferation inhibition rate (%)=[(Ac−As)/(Ac−Ab)]×100% • As: absorbance in experimental wells (including cells, culture medium, CCK-8 solution, and drug solution) • Ac: absorbance in control wells (including cells, culture medium, CCK-8 solution, without drugs) • Ab: absorbance in blank wells (including culture medium, CCK-8 solution, without cells or drugs)

[1] = test system: MV-4-11 subcutaneous transplant tumor; assay: In vivo efficacy in MV-4-11 subcutaneous transplant tumors; parameters: species or system SCID mice; conditions: tumor volume on the 27th day
Method: Test Example 4: Compound's In Vivo Efficacy in MV-4-11 Subcutaneous Transplant Tumors Experimental method: Human acute monocytic leukemia cell line MV-4-11 was used to construct a subcutaneous transplant tumor model in SCID mice. Grouping: solvent group, reference compound (IV: 2 mg/kg, Day 0-12; IP: 20 mg/kg, Day 13-26) group, 5-17 and 5-22 (IV: 0.5 mg/kg, Day 0-12; IP: 10 mg/kg, Day 13-26), with 5 animals in each group, once a day. The tumor volume on the 27th day was measured and the tumor inhibition rate was calculated. Tumor inhibition rate (%)=[(tumor volume in solvent group−tumor volume in drug group)/tumor volume in solvent group]×100%

[2] = IV 0.5 mg/kg Day 0-12, IP 10 mg/kg Day 13-26, once a day

SMILES | inhibition at 0.1 µM (GSPT1 protein; 100 nM, Jeko-1 cells, 24 hours) [%] | inhibition at 10 µM (GSPT1 protein; 10 μM, Jeko-1 cells, 24 hours) [%] | IC50 (HL-60 cells) [nM] | IC50 (HNT-34 cells) [nM] | IC50 (Jeko-1 cells) [nM] | Tumor inhibition rate (%) [1, 2] [%] | inhibition at 0.1 µM (GSPT1 protein) [%] | inhibition at 10 µM (GSPT1 protein) [%] | Tumor inhibition rate (%) ([1]; IV 2 mg/kg Day 0-12, IP 20 mg/kg Day 13-26, once a day)
CC(C)(C)OC(=O)N[C@H](C(=O)NCc1ccc2c(c1)CN(C1CCC(=O)NC1=O)C2=O)c1ccccc1Cl (stereo partly drawn) [Compound 5-17, Tert butyl ((1S)-1-(2-chlorophenyl)-2-((2-(2,6-dioxopyridin-3-yl)-1-oxoisoidoline-5-yl)methyl)amino)-2-oxoethyl) carbamate] | 94.2 | 95.6 | 4.2 | 3.2 | 0.1 | 99.6 |  |  | 
CC(C)OC(=O)N[C@H](Cc1ccccc1)C(=O)NCc1ccc2c(c1)CN(C1CCC(=O)NC1=O)C2=O (stereo partly drawn) [Compound 5-22, Isopropyl ((2R)-1-((2-(2,6-dioxypiperidin-3-yl)-1-oxoisoindolin-5-yl)methyl)amino)-1-oxo-3-phenylprop-2-yl) carbamate] |  |  | 18.6 | 21.3 | 0.6 | 99.8 | 77.7 | 95.7 | 
O=C1CCC(N2Cc3cc(CNC(=O)C(F)(F)c4ccc(Cl)cc4)ccc3C2=O)C(=O)N1 (stereo not drawn) [Reference compound, reference compound] |  |  |  |  |  |  |  |  | 28.3
CC(C)(C)OC(=O)N[C@H](C(=O)NCc1ccc2c(c1)CN(C1CCC(=O)NC1=O)C2=O)c1ccc(Cl)cc1 (stereo partly drawn) [Compound 4-150, Tert butyl ((1S)-1-(4-chlorophenyl)-2-((2-(2,6-dioxopyridin-3-yl)-1-oxoisoidoline-5-yl)methyl)amino)-2-oxoethyl) carbamate] | 90 | 99 | 9.2 | 6.5 | 3.9 |  |  |  | 
